How the values were obtained:
[1] = tested on: MDA-MB-436 (mutated BRCA1) cell lines; experiment: Cell growth inhibition assay (CellTiter-Glo cell viability); format: cell-based; details: Homo sapiens, 168 h; MDA-MB-436 cells, 7 days, CellTiter Glo 2.0
Protocol: (§1) Cell proliferation was measured through the cell viability assay using DLD-1 BRCA2(−/−) and parental isogenic pair and MDA-MB-436 (mutated BRCA1) cell lines. The CellTiter-Glo (CTG) based cell viability assay is designed to determine the number of viable cells in the culture because of compound effect, by quantifying ATP, which indicates the presence of metabolically active cells.
(§2) DLD-1 BRCA2(−/−) and parental isogenic pair were cultured in RPMI 1640 supplemented with 10% fetal bovine serum (FBS), and MDA-MB-436 cells were cultured in DMEM supplemented with 10% FBS. Both were cultured at 37° C. with […]. Invention compounds were distributed to the 384 well plate (Corning, 3764) using Echo acoustic liquid handler to form a 1:3 serially diluted final concentration with top dose of 10 or 30 μM.

[2] = tested on: DLD-1 BRCA2(−/−); experiment: as above; format: cell-based; details: Homo sapiens, DLD-1, 168 h, DLD-1 BRCA2(−/−) cells, 7 days, CellTiter Glo 2.0
Protocol: as §1, §2

[3] = target: T1, BCRP (Homo sapiens, UniProt Q9UNQ0); experiment: In vitro human transporter efflux, MDCKII cells expressing BCRP; format: in vitro ADME; details: for Papp A→B at 2 h, 10 μM: pH 7.4, read-out: BCRP Papp AB; for Papp B→A at 2 h, 10 μM: pH 7.4, read-out: BCRP Papp BA; for efflux ratio at 2 h, 10 μM: pH 7.4, Efflux ratio=Papp(B→A)/Papp(A→B)
T1 construct: expressed in transfected cells; host or cells: MDCKII (Madin-Darby canine kidney) cells
T1 sequence (Q9UNQ0 1-655): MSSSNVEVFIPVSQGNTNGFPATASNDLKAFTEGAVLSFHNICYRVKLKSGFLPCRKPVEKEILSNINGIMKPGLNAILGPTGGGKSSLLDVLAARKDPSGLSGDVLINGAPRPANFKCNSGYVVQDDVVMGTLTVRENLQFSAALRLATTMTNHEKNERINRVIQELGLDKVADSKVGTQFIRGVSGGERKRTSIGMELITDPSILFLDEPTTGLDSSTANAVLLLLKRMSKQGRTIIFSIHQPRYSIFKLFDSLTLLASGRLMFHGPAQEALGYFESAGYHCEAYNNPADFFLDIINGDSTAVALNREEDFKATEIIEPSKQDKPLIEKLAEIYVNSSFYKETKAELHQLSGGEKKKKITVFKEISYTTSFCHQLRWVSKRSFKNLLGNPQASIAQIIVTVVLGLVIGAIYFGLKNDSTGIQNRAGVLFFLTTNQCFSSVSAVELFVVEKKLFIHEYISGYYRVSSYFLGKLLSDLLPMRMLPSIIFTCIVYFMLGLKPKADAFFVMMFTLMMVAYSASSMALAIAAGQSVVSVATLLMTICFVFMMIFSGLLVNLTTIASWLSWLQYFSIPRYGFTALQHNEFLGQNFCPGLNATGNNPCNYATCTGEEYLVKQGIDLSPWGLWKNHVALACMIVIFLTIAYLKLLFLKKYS
Protocol: (§3) Madin-Darby canine kidney (MDCKII) cells expressing either MDR1 or BCRP were seeded onto Corning HTS Transwell® 96-well polycarbonate permeable (0.4 μm pore) supports at a density of 545,000 cells/cm2. Cells were incubated for 4-8 days prior to assay, and monolayer integrity was assessed by measuring transepithelial electrical resistance (TEER). […] The final organic solvent concentration was 0.5% (v/v). Bidirectional (apical-to-basolateral and basolateral-to-apical) flux of the test and reference compounds was determined over a 2-hour incubation at 37° C. and […] with a relative humidity of 95%. At the end of the incubation, samples from the apical and basolateral side were taken and then precipitated with acetonitrile containing internal standard. After centrifugation at 3200×g, supernatants were diluted 1:1 (v/v) with water and subjected to analysis via HPLC-MS/MS.
(§4) The apparent permeability (Papp, units of x 10-6 cm/s) was calculated using the following equation: […]
(§5) Where dQ/dt was the rate of drug transport (pmol/s), A was the surface area of the membrane (0.143 cm^2), and DO was the initial donor concentration (nM or pmol/cm3).
(§6) Efflux ratio=Papp(B→A)/Papp(A→B)
(§7) Where Papp(B→A) is the apparent permeability in the basolateral-to-apical direction, and Papp(A→B) is the apparent permeability in the apical-to-basolateral direction.

[4] = target: T2, MDR1 (Homo sapiens, UniProt P08183); experiment: In vitro human transporter efflux, MDCKII cells expressing MDR1; format: in vitro ADME; details: for Papp A→B at 2 h, 10 μM: MDCK-MDR1, pH 7.4, read-out: MDCK-MDR1 Papp AB; for Papp B→A at 2 h, 10 μM: MDCK-MDR1, pH 7.4, read-out: MDCK-MDR1 Papp BA; for efflux ratio at 2 h, 10 μM: MDCK-MDR1, pH 7.4, Efflux ratio=Papp(B→A)/Papp(A→B)
T2 construct: expressed in transfected cells; host or cells: MDCKII (Madin-Darby canine kidney) cells
Protocol: as §3, §4, §5, §6, §7

[5] = In vivo determination of rat Kp,uu; details: brain and plasma, 1 mg/kg, male Sprague-Dawley rats, oral gavage, 0.1 mg/mL at 10 mL/kg, Kp*(fraction unbound in brain homogenate/fraction unbound in plasma)
Protocol: The equilibrium dialysis method was used to investigate the in vitro binding of test articles and reference compounds to plasma proteins. Plasma samples containing 5 μM test article or blank dialysis buffer solution (PBS, pH 7.4) were added to separate chambers of the dialysis wells of the High Throughput equilibrium Dialysis (HTD) device. The dialysis plate was sealed and placed in an incubator at 37° C. with 5% CO2 with shaking at approximately 100 rpm for 6 hours. All experiments were performed in duplicate. Ketoconazole (5 μM) was used as the reference compound. After incubation, the seal was removed, and 50 μL of post-dialysis samples were pipetted from both buffer and plasma chambers into fresh 96well plates. Samples were equimatrilyzed by either addition of blank plasma to buffer samples or the addition of blank buffer to plasma samples. […] The unbound fractions in plasma were calculated using the concentrations of test articles in buffer and plasma samples according to the following equation: […]
The equilibrium dialysis method was used to investigate the in vitro binding of test articles and reference compounds to rodent brain homogenate. […] The unbound fractions in diluted brain homogenate were calculated using the concentrations of test articles in buffer and homogenate samples according to the following equation: […]

[6] = target: PARP1 (Homo sapiens, UniProt P09874); experiment: biochemical
Chain of PARP1 (P09874 whole entry): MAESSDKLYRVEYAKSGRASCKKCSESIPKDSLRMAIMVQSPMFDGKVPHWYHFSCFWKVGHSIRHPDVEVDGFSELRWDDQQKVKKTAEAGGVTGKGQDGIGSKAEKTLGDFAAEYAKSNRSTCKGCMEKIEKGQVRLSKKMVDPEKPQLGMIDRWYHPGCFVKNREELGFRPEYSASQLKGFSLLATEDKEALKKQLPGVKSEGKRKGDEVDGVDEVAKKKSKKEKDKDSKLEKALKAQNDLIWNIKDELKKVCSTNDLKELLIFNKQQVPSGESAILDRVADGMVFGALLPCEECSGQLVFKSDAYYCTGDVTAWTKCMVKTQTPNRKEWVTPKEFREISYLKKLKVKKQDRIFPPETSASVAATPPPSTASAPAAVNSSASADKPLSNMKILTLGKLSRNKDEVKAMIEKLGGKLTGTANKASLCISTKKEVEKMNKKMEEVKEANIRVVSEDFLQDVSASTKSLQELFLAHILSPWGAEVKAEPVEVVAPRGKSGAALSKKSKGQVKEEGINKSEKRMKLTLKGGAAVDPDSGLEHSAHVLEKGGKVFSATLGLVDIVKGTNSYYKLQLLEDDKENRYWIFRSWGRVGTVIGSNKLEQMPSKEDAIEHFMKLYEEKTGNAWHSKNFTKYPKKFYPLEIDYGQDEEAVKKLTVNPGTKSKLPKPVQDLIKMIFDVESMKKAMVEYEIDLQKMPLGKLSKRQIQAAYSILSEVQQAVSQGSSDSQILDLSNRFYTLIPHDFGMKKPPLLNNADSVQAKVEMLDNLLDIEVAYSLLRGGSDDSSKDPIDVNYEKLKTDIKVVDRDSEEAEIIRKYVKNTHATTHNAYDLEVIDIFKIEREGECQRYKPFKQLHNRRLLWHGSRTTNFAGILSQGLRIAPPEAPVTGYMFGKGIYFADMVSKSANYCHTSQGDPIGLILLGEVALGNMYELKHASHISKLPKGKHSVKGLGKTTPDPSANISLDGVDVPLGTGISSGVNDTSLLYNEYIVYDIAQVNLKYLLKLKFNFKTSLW
Protocol: The assay was performed utilizing the following method:
Compounds were dissolved in DMSO an Echo550 liquid handler was utilized to make serial dilations in the desired concentration range in Optiplate-384F plates. 100% DMSO was used for the high (with protein) and low (without protein) control samples. 20 nL of compound or DMSO alone was added to individual assay plate wells.
PARP1 and PARP2 protein were expressed, purified, and diluted in assay buffer containing 50 mM Tris pH 8.0, 0.001% Triton X-100, 10 mM MgCl2, 150 mM NaCl to a final concentration of 20 nM. The PARPi-FL was then added at a final concentration of 3 nM.
The assay plate was centrifuged at 1000 rpm for 1 min and incubated for 4 h at room temperature.
The fluorescent polarization was read using an Envision plate reader using the following settings: • Excitation filter—FITC FP 480-Ex Slot 3 • Emission filter—FITC FP P-pol 535-Em Slot 4 • 2nd Emission filter—FITC FP S-pol 535-Em Slot 3 • Mirror module—FITC FP Dual Enh-Slot 1
XLFit (equation 201) is used to calculate a reported IC50 for each compound.

T2 sequence (P08183 whole entry): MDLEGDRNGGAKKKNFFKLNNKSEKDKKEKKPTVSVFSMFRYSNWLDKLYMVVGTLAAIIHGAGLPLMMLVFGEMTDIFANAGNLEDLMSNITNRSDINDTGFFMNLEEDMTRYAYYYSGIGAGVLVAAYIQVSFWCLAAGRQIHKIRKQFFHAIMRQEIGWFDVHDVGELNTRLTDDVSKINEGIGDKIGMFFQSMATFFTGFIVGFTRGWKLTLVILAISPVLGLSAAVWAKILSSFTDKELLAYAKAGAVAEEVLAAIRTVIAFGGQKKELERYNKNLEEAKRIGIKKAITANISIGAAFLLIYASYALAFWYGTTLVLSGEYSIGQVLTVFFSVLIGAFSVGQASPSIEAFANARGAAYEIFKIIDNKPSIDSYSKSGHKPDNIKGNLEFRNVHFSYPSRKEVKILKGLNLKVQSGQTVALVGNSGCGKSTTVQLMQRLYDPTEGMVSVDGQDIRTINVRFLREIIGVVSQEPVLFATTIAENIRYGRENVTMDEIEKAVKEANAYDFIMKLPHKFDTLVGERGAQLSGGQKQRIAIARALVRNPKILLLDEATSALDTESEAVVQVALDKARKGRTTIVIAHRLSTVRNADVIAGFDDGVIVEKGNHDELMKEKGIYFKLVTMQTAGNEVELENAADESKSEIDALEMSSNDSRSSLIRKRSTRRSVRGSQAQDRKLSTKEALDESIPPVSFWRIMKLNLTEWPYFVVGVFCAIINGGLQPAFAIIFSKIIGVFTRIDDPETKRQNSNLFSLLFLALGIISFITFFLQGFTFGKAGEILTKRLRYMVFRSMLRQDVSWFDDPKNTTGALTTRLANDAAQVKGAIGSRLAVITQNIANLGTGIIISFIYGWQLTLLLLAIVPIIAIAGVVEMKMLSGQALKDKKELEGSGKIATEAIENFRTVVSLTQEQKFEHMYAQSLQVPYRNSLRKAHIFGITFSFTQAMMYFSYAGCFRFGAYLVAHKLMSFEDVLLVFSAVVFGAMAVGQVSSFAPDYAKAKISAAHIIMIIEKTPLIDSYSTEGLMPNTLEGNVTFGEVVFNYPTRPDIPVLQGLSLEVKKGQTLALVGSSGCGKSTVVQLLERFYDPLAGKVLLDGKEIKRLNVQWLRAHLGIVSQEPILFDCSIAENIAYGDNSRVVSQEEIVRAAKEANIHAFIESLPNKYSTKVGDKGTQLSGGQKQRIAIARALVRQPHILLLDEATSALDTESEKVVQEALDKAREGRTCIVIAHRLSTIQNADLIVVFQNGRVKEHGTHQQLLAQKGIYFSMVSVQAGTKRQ

Structure (SMILES)	EC50 [1] [nM]	EC50 [2] [nM]	Papp A→B at 2 h, 10 μM [3] [×10⁻⁶ cm/s]	Papp B→A at 2 h, 10 μM [3] [×10⁻⁶ cm/s]	Papp A→B at 2 h, 10 μM [4] [×10⁻⁶ cm/s]	Papp B→A at 2 h, 10 μM [4] [×10⁻⁶ cm/s]	Kp uu [5]	efflux ratio at 2 h, 10 μM [3]	IC50 [6] [nM]	efflux ratio at 2 h, 10 μM [4]
Cc1nc2ccc(CN3CCN(c4ccc(C(=O)NC5CC5)nc4F)CC3)c(F)c2[nH]c1=O [Example 1, N-cyclopropyl-6-fluoro-5-{4-[(5-fluoro-2-methyl-3-oxo-4H-quinoxalin-6-yl)methyl]piperazin-1-yl}pyridine-2-carboxamide]	2.4	3.7	25.7	24.1	16.5	30	0.37	0.94	4.5	1.82
Cc1nc2ccc(CN3CCN(c4ccc(C(=O)NC56CC(C5)C6)nc4F)CC3)c(F)c2[nH]c1=O [Example 4]	3.7	5.2	–	–	–	–	–	–	18	–
CNC(=O)c1ccc(C2CCN(Cc3ccc4nc(C)c(=O)[nH]c4c3F)CC2)c(F)n1 [Example 5, 6-fluoro-5-{1-[(5-fluoro-2-methyl-3-oxo-4H-quinoxalin-6-yl)methyl]piperidin-4-yl}-N-methylpyridine-2-carboxamide]	11	23	–	–	–	–	–	–	16	–
CNC(=O)c1ccc(C2=CCN(Cc3ccc4nc(C)c(=O)[nH]c4c3F)CC2)c(F)n1 [Example 7, 2-fluoro-1′-[(5-fluoro-2-methyl-3-oxo-4H-quinoxalin-6-yl)methyl]-N-methyl-3′,6′-dihydro-2′H-[3,4′-bipyridine]-6-carboxamide]	6.7	15	–	–	–	–	–	–	15	–
Cc1nc2ccc(CN3CCN(c4ccc(C(=O)NC5CC5)nc4)CC3)c(F)c2[nH]c1=O [Example 8]	13	39	–	–	–	–	–	–	15	–
Cc1nc2ccc(CN3CCN(c4ccc(C(=O)N[C@H]5C[C@H](F)C5)nc4F)CC3)c(F)c2[nH]c1=O [Example 11]	3.8	6.8	–	–	–	–	–	–	5.2	–
Cc1nc2ccc(CN3CC=C(c4ccc(C(=O)NC5CC5)nc4F)CC3)c(F)c2[nH]c1=O [Example 26]	23	21	–	–	–	–	–	–	37	–

Now from value to molecule:

EC50 [1] [nM]	EC50 [2] [nM]	Papp A→B at 2 h, 10 μM [3] [×10⁻⁶ cm/s]	Papp B→A at 2 h, 10 μM [3] [×10⁻⁶ cm/s]	Papp A→B at 2 h, 10 μM [4] [×10⁻⁶ cm/s]	Papp B→A at 2 h, 10 μM [4] [×10⁻⁶ cm/s]	Kp uu [5]	efflux ratio at 2 h, 10 μM [3]	IC50 [6] [nM]	efflux ratio at 2 h, 10 μM [4]	Structure (SMILES)
2	3.1	21.4	19.4	16.6	16.4	–	–	–	–	Cc1nc2ccc(CN3CCN(c4ccc(C(=O)N[C@@H]5CC5(F)F)nc4F)CC3)c(F)c2[nH]c1=O (single isomer, unassigned) [Example 21]
2.1	2.8	–	–	–	–	–	–	5.3	–	CCc1nc2ccc(CN3CCN(c4ccc(C(=O)NC5CC5)nc4F)CC3)c(F)c2[nH]c1=O [Example 14]
2.2	3.9	28	20.2	20.9	18.2	–	0.73	18	0.87	Cc1nc2ccc(CN3CCN(c4ccc(C(=O)NCC(F)F)nc4F)CC3)c(F)c2[nH]c1=O [Example 19]
